Patent US20190002436A1, “RESPIRATORY SYNCYTIAL VIRUS INHIBITORS” (MEDIVIR AB, priority 2015, published 2019)

These compounds were tested on RSV (Long) (assay: RSV cytopathic effect (CPE)-based viral replication assay). Conditions: HEp-2 cells infected with RSV Long at MOI 0.015; 3 days at 37° C.; cell viability by CellTiter-Glo luminescence; read-out: EC50 (nm).
Format: cell-based, respiratory syncytial virus (RSV)
Summary of the method: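 HEp-2 cells, 2,500 per well in DMEM with 2% heat-inactivated FBS, treated with 10-point compound dilutions and infected with RSV Long at MOI 0.015. After 3 days at 37 °C, 5% CO2, viability read by CellTiter-Glo luminescence; EC50 derived from CPE data.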

| EC50 | SMILES |
| --- | --- |
| 12 nM | O=C1CC(c2c(Cn3c(=O)n(C4CC4)c4ccncc43)ncc3ccccc23)CN1 (stereo not drawn) [Example 112c, 1-cyclopropyl-3-((4-(5-oxopyrrolidin-3-yl)isoquinolin-3-yl)methyl)-1H-imidazo[4,5-c]pyridin-2(3H)-one] |

Same assay, conditions: human respiratory syncytial virus, HEp-2, 72 h, HEp-2 cells infected with RSV Long at MOI 0.015; 3 days at 37° C.; cell viability by CellTiter-Glo luminescence; read-out: EC50 (nm)

| EC50 | SMILES |
| --- | --- |
| 3.7 nM | NC1(C(=O)N2CCC3(CC2)C(=O)N(Cc2ncc4ccccc4c2-c2cncc(F)c2)c2cnccc23)CC1 [Example 106c, 1-(1-aminocyclopropanecarbonyl)-1′-((4-(5-fluoropyridin-3-yl)isoquinolin-3-yl)methyl)spiro[piperidine-4,3′-pyrrolo[2,3-c]pyridin]-2′(1′H)-one] |
| 2.5 nM | N#Cc1ccc(-c2c(CN3C(=O)C4(CCN(C(=O)OCCO)CC4)c4ccncc43)ncc3ccccc23)cn1 [Example 68, 2-hydroxyethyl 1′-((4-(6-cyanopyridin-3-yl)isoquinolin-3-yl)methyl)-2′-oxo-1′,2′-dihydrospiro[piperidine-4,3′-pyrrolo[2,3-c]pyridine]-1-carboxylate] |
| 3.4 nM | O=c1n(Cc2ncc3ccccc3c2CCCCF)c2cnccc2n1C1CC1 [Example 57, 1-Cyclopropyl-3-((4-(4-fluorobutyl)isoquinolin-3-yl)methyl)-1H-imidazo[4,5-c]pyridin-2(3H)-one] |
| 140 nM | O=c1n(Cc2ncc3cccc(F)c3c2CCCCO)c2cnccc2n1C1CC1 [Example 31, 1-Cyclopropyl-3-((5-fluoro-4-(4-hydroxybutyl)isoquinolin-3-yl)methyl)-1H-imidazo[4,5-c]pyridin-2(3H)-one] |
| 8.5 nM | CNC1(C(=O)N2CCC3(CC2)C(=O)N(Cc2ncc4ccccc4c2-c2ccc(C(=O)N(C)C)nc2)c2cnccc23)CC1 [Example 122, N,N-dimethyl-5-(3-((1-(1-(methylamino)cyclopropanecarbonyl)-2′-oxospiro[piperidine-4,3′-pyrrolo[2,3-c]pyridin]-1′(2′H)-yl)methyl)isoquinolin-4-yl)picolinamide] |
